{"source": "paper PMC7589583", "about": "“Hydroxylation of Antitubercular Drug Candidate, SQ109, by Mycobacterial Cytochrome P450” (International Journal of Molecular Sciences, 2020)", "format_in_all_cases": "binding", "key": {"[1]": {"target": "T1, CYP124 (Rv2266, CYP124A1) (Mycobacterium tuberculosis, UniProt P9WPP3)", "T1 sequence (P9WPP3 1-428)": "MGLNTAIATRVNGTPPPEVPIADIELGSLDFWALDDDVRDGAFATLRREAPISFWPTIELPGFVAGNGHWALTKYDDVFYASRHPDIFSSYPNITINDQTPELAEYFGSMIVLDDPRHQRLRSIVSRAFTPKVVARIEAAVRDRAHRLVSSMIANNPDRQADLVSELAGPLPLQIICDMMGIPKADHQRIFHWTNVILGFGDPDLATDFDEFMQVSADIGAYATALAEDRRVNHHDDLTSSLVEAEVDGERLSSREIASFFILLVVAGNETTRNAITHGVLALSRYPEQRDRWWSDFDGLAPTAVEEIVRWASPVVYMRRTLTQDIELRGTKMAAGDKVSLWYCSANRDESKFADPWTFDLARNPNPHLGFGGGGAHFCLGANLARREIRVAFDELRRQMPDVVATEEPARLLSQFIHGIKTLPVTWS", "test": "[…] Å co-crystal structure; […]; LC-MS turnover"}, "[2]": {"target": "T2, CYP125 (Rv3545c, CYP125A1) (Mycobacterium tuberculosis, UniProt P9WPP1)", "T2 sequence (P9WPP1 1-433)": "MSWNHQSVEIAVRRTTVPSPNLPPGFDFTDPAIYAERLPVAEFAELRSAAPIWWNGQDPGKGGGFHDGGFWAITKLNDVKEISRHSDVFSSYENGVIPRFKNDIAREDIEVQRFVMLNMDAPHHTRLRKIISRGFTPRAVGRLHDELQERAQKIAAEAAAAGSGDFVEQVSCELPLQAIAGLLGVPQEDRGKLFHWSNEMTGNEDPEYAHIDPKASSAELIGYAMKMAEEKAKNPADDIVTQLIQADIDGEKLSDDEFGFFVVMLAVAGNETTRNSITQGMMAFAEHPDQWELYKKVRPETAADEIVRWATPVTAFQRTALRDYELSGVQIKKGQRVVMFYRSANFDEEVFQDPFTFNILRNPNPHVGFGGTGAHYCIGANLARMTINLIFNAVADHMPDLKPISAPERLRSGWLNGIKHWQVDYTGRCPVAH", "test": "biochemical"}, "[3]": {"target": "CYP142 (Rv3518c, CYP142A1) (Mycobacterium tuberculosis, UniProt P9WPL5)", "sequence (P9WPL5 whole entry)": "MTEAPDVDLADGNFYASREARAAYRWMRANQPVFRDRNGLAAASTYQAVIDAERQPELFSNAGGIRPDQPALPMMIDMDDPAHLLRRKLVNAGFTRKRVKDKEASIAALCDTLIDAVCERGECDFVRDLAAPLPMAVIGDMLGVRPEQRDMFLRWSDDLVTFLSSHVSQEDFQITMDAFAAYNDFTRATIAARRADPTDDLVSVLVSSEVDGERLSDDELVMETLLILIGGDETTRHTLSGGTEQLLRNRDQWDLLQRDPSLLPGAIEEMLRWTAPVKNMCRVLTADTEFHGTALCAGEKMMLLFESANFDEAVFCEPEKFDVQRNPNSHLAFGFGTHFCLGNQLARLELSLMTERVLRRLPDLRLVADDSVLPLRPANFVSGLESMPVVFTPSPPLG", "test": "biochemical"}}, "data": [{"smiles": "CC(C)=CCC/C(C)=C\\CNCCNC1C2CC3CC(C2)CC1C3", "note": "(stereo not drawn) [SQ109]", "values": [{"measurement": "Kd", "setting": "[1]", "result": "3.4 ± 0.3", "unit": "µM"}, {"measurement": "Kd", "setting": "[2]", "result": "41 ± 3", "unit": "µM"}, {"measurement": "Kd", "setting": "[3]", "result": "52 ± 11", "unit": "µM"}]}]}
